Patent publication US20200405697A1, “Antitumor Agent” (Taiho Pharmaceutical Co., Ltd, priority 2017, published 2020)

Biological target: T1, human RNR (histidine tagged human M1 and human M2 proteins) (Homo sapiens, UniProt P23921)
T1 construct: made in house; host or cells: Escherichia coli
T1 sequence (P23921 1-792): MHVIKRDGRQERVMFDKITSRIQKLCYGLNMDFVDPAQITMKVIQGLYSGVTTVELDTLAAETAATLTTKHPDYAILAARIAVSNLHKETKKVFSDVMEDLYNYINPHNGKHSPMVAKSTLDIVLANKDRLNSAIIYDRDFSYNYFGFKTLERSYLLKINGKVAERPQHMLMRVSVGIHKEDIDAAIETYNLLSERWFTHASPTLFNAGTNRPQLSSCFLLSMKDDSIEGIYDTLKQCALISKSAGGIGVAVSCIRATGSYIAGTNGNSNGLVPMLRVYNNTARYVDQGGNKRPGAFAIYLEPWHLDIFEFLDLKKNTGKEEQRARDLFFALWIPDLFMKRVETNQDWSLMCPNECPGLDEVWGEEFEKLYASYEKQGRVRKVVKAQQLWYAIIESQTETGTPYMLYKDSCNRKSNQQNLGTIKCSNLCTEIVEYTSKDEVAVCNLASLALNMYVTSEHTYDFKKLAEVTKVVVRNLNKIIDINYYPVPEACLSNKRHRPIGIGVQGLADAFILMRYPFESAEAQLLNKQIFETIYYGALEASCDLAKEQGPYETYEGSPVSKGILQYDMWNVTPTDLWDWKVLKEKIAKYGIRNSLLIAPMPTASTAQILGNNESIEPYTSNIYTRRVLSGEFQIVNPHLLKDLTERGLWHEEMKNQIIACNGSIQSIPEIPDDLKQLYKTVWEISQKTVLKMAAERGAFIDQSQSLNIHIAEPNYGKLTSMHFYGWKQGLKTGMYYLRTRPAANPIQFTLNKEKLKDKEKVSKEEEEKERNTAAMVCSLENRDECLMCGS
Assay: Human RNR inhibition effect (dCDP formation from CDP)
Type: biochemical
Details: 10 μM CDP, 37° C. for 30 minutes, read-out: RNR inhibitory activity IC50
In short: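 His-tagged human M1 (isoform 1) and N-terminal 59-aa-truncated M2 (isoform 2), E. coli-expressed, Ni-purified, preincubated 20 min with compound (1% DMSO). Reaction with 10 μM CDP, 2 mM ATP, 0.24 mM NADPH, 6 mM DTT, 4 mM Mg acetate, 100 mM KCl, 50 mM HEPES pH 7.2, 30 min at 37° C. dCDP formed quantified by reverse-phase HPLC after heat stop.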

Compound	IC50 [nM]
Cc1ccc(F)c([C@@H](C)[C@H](NS(=O)(=O)c2ccc3[nH]nnc3c2)c2n[nH]c(=O)o2)c1C [Example 181, N-((1S,2R)-2-(6-fluoro-2,3-dimethylphenyl)-1-(5-oxo-4,5-dihydro-1,3,4-oxadiazol-2-yl)propyl)-1H-benzo[d][1,2,3]triazole-5-sulfonamide]	660
Cc1ccc(F)c([C@@H](C)[C@H](NS(=O)(=O)c2ccc3[nH]ncc3c2)c2n[nH]c(=O)o2)c1C [Example 182, N-((1S,2R)-2-(6-fluoro-2,3-dimethylphenyl)-1-(5-oxo-4,5-dihydro-1,3,4-oxadiazol-2-yl)propyl)-1H-indazole-5-sulfonamide]	410
Cc1ccc(F)c([C@@H](C)[C@H](NS(=O)(=O)c2ccc3c(c2)CCCO3)c2n[nH]c(=O)o2)c1C [Example 183, N-((1S,2R)-2-(6-fluoro-2,3-dimethylphenyl)-1-(5-oxo-4,5-dihydro-1,3,4-oxadiazol-2-yl)propyl)chroman-6-sulfonamide]	320
Cc1ccc(F)c([C@@H](C)[C@H](NS(=O)(=O)c2ccc3c(c2)N(C)CCC3)c2n[nH]c(=O)o2)c1C [Example 184, N-((1S,2R)-2-(6-fluoro-2,3-dimethylphenyl)-1-(5-oxo-4,5-dihydro-1,3,4-oxadiazol-2-yl)propyl)-1-methyl-1,2,3,4-tetrahydroquinoline-7-sulfonamide]	220
C=C(c1c(F)ccc(C)c1C)[C@H](NS(=O)(=O)c1ccc(Cl)cc1OC)c1n[nH]c(=O)o1 [Example 185, (S)-4-chloro-N-(2-(6-fluoro-2,3-dimethylphenyl)-1-(5-oxo-4,5-dihydro-1,3,4-oxadiazol-2-yl)allyl)-2-methoxybenzensulfonamide]	600
Cc1ccc(F)c([C@@H](C)[C@H](NS(=O)(=O)c2ccc(F)c(C(C)(C)O)c2F)c2n[nH]c(=O)o2)c1C [Example 186, 2,4-difluoro-N-((1S,2R)-2-(6-fluoro-2,3-dimethylphenyl)-1-(5-oxo-4,5-dihydro-1,3,4-oxadiazol-2-yl)propyl)-3-(2-hydroxypropan-2-yl)benzenesulfonamide]	90
C[C@H](c1cccc2c1CCC2)[C@H](NS(=O)(=O)c1ccc(Br)c(C(C)(C)O)c1)c1n[nH]c(=O)o1 [Example 188, 4-bromo-N-((1S,2R)-2-(2,3-dihydro-1H-inden-4-yl)-1-(5-oxo-4,5-dihydro-1,3,4-oxadiazol-2-yl)propyl)-3-(2-hydroxypropan-2-yl)benzenesulfonamide]	640

Now from value to compound:

IC50 [nM]	Compound
550	C[C@H](c1cccc2c1CCC2)[C@H](NS(=O)(=O)c1ccc(F)c(C(C)(C)O)c1F)c1n[nH]c(=O)o1 [Example 189, N-((1S,2R)-2-(2,3-dihydro-1H-inden-4-yl)-1-(5-oxo-4,5-dihydro-1,3,4-oxadiazol-2-yl)propyl)-2,4-difluoro-3-(2-hydroxypropan-2-yl)benzenesulfonamide]
440	C[C@H](c1cccc2c1CCC2)[C@H](NS(=O)(=O)c1ccc(Cl)c(C(C)(C)O)n1)c1n[nH]c(=O)o1 [Example 192, 5-chloro-N-((1S,2R)-2-(2,3-dihydro-1H-inden-4-yl)-1-(5-oxo-4,5-dihydro-1,3,4-oxadiazol-2-yl)propyl)-6-(2-hydroxypropan-2-yl)pyridine-2-sulfonamide]
90	Cc1ccc(F)c([C@@H](C)[C@H](NS(=O)(=O)c2ccc(Cl)c(C(C)(C)O)n2)c2n[nH]c(=O)o2)c1C [Example 193, 5-chloro-N-((1S,2R)-2-(6-fluoro-2,3-dimethylphenyl)-1-(5-oxo-4,5-dihydro-1,3,4-oxadiazol-2-yl)propyl)-6-(2-hydroxypropan-2-yl)pyridine-2-sulfonamide]
360	Cc1ccc(F)c([C@@H](C)[C@H](NS(=O)(=O)c2ccc3c(c2)C(C)(O)CCC3)c2n[nH]c(=O)o2)c1C (stereo partly drawn) [Example 194, N-((1S,2R)-2-(6-fluoro-2,3-dimethylphenyl)-1-(5-oxo-4,5-dihydro-1,3,4-oxadiazol-2-yl)propyl)-8-hydroxy-8-methyl-5,6,7,8-tetrahydronaphthalene-2-sulfonamide]
